According to patent US10858335B2 (Rigel Pharmaceuticals, Inc., priority 2014, dated 2020):

tested on: GDF8 signaling (p-SMAD-3 (Ser423/425)); experiment: AlphaScreen SureFire SMAD3 (p-Ser423/425) assay, GDF8-stimulated cells (GDF pSMAD); format: cell-based; conditions: MPC11; GDF8-stimulated; p-SMAD3 AlphaScreen; read-out: GDF pSMAD (MPC11) (inhibition of GDF8 signaling)

IC50 [µM] | Compound
18.5 | Cc1cc(-c2ncccc2-c2ccc3ncn(CCCN4CCN(C)CC4)c3c2)ccc1F [Compound 40, 6-(2-(4-Fluoro-3-methylphenyl)pyridin-3-yl)-1-(3-(4-methylpiperazin-1-yl)propyl)-1H-benzo[d]imidazole]

same assay, conditions: Mus musculus, MPC-11, GDF8-stimulated pSMAD3, MPC11; tested as the salt form given; read-out: GDF pSMAD (MPC11) (μM), inhibition of GDF8 signaling

IC50 [µM] | Compound
1.87 | Nc1ncnc2ccc(-c3cccnc3-c3ccc(F)c(Cl)c3F)cc12 [compound 978, 6-(2-(3-chloro-2,4-difluorophenyl)pyridin-3-yl)quinazolin-4-amine]
0.804 | Cc1cc(-c2ncccc2-c2ccc3ncnn3c2)c(C)cc1F [compound 1064]
4.45 | Cc1cc(-c2ncccc2-c2ccc3ncc(C#N)n3c2)c(C)cc1F [compound 1063]
0.958 | Cc1cc(F)c(C(F)F)cc1-c1ncccc1-c1ccc2ncnc(N)c2c1 [compound 1025, 6-(2-(5-(difluoromethyl)-4-fluoro-2-methylphenyl)pyridin-3-yl)quinazolin-4-amine]
1.2 | Nc1ncnc2ccc(-c3cc(F)cnc3-c3cc(Cl)ccc3F)cc12 [compound 999, 6-(2-(5-chloro-2-fluorophenyl)-5-fluoropyridin-3-yl)quinazolin-4-amine]
0.203 | Cc1ccc(F)c(-c2ncccc2-c2ccc3ncnc(N)c3c2)c1 [compound 1004, 6-(2-(2-fluoro-5-methylphenyl)pyridin-3-yl)quinazolin-4-amine]

same assay, conditions: Mus musculus, MPC-11, MPC11; GDF8-stimulated; p-SMAD3 AlphaScreen; read-out: GDF pSMAD (MPC11) (inhibition of GDF8 signaling)

IC50 [µM] | Compound
1.27 | Cc1cc(-c2ncccc2-c2ccn3c(C(=O)O)ncc3c2)ccc1F [compound 258, 7-(2-(4-Fluoro-3-methylphenyl)pyridin-3-yl)imidazo[1,5-a]pyridine-3-carboxylic acid]
0.339 | Cc1cc(CNc2cnc(-c3ccc(F)c(C)c3)c(-c3ccc4ncsc4c3)c2)ccc1O [compound 372, 4-(((5-(Benzo[d]thiazol-6-yl)-6-(4-fluoro-3-methylphenyl)pyridin-3-yl)amino)methyl)-2-methylphenol]
17.7 | Cc1cc(-c2ncccc2-c2ccc3cnc(-c4cccc(N)c4)n3c2)ccc1F [compound 283, 3-(6-(2-(4-Fluoro-3-methylphenyl)pyridin-3-yl)imidazo[1,5-a]pyridin-3-yl)aniline]
1.84 | Fc1cnc(-c2cc(Cl)ccc2F)c(-c2ccn3ncnc3c2)c1 [compound 862, 7-(2-(5-Chloro-2-fluorophenyl)-5-fluoropyridin-3-yl)-[l 1,2,4]triazolo[1,5-a]pyridine]
4.68 | CN(C)c1cnc2ccc(-c3cccnc3-c3cccc(C(F)(F)F)c3)cn12 [compound 554, N,N-Dimethyl-6-(2-(3-(trifluoromethyl)phenyl)pyridin-3-yl)imidazo[1,2-a]pyridin-3-amine]
0.345 | Nc1nc2ccc(-c3cccnc3-c3cccc(Cl)c3)nc2s1 [compound 301, 5-(2-(3-Chlorophenyl)pyridin-3-yl)thiazolo[5,4-b]pyridin-2-amine]
1.71 | N#Cc1cc(-c2ncccc2-c2ccc3ncc(C#N)n3c2)ccc1F [compound 628, 6-(2-(3-Cyano-4-fluorophenyl)pyridin-3-yl)imidazo[1,2-a]pyridine-3-carbonitrile]
0.109 | Cc1cccc(-c2ncccc2-c2ccc3nccn3c2)c1 [Compound 166, 6-(2-m-Tolylpyridin-3-yl)imidazo[1,2-a]pyridine]
0.0706 | FC(F)Oc1cccc(-c2ncccc2-c2ccn3nccc3n2)c1 [compound 921, 5-(2-(3-(Difluoromethoxy)phenyl)pyridin-3-yl)pyrazolo[1,5-a]pyrimidine]
0.648 | Cc1cc(-c2ncccc2-c2ccc3ncc(C(=O)NCCN4CCCC4)n3c2)ccc1F [compound 610, 6-(2-(4-Fluoro-3-methylphenyl)pyridin-3-yl)-N-(2-(pyrrolidin-1-yl)ethyl)imidazo[1,2-a]pyridine-3-carboxamide]
4.01 | Fc1cnc(-c2cc(Cl)c(F)cc2F)c(-c2ccn3ncnc3c2)c1 [compound 861, 7-(2-(5-Chloro-2,4-difluorophenyl)-5-fluoropyridin-3-yl)-[1,2,4]triazolo[1,5-a]pyridine]
1.81 | Fc1cc(F)cc(-c2ncccc2-c2ccc3[nH]ncc3c2)c1 [Compound 67, 5-[2-(3,5-Difluorophenyl)pyridin-3-yl]-1H-indazole]
3.97 | Fc1cc(-c2ncccc2-c2ccc3ncsc3c2)cc(F)c1F [compound 666, 6-(2-(3,4,5-Trifluorophenyl)pyridin-3-yl)benzo[d]thiazole]
12.2 | COc1cc(-c2ncccc2-c2cnc3cn[nH]c3c2)ccc1F [Compound 143, 6-(2-(4-Fluoro-3-methoxyphenyl)pyridin-3-yl)-1H-pyrazolo[4,3-b]pyridine]
0.29 | Fc1ccc(Cl)cc1-c1ncccc1-c1ccc2ncnn2n1 [compound 955, 6-(2-(5-Chloro-2-fluorophenyl)pyridin-3-yl)-[1,2,4]triazolo[1,5-b]pyridazine]
0.142 | Cc1cc(-c2ncc(N)cc2-c2ccc3ncsc3c2)ccc1F [Compound 18, 5-(Benzo[d]thiazol-6-yl)-6-(4-fluoro-3-methylphenyl)pyridin-3-amine]
1.61 | CC(=O)NCCCNC(=O)c1cnc2ccc(-c3cccnc3-c3ccc(F)c(C)c3)cn12 [compound 816, N-(3-Acetamidopropyl)-6-(2-(4-fluoro-3-methylphenyl)pyridin-3-yl)imidazo[1,2-a]pyridine-3-carboxamide]
12.8 | Cc1cc(-c2nc3c(cc2-c2ccc4[nH]ncc4c2)N(C)CCO3)ccc1F [compound 300, 6-(4-Fluoro-3-methylphenyl)-7-(1H-indazol-5-yl)-1-methyl-2,3-dihydro-1H-pyrido[2,3-b][1,4]oxazine]
1.74 | Cc1cc(-c2nc3c(cc2-c2ccc4ncsc4c2)NC(=O)CO3)ccc1F [compound 292, 7-(Benzo[d]thiazol-6-yl)-6-(4-fluoro-3-methylphenyl)-1H-pyrido[2,3-b] [1,4]oxazin-2(3H)-one]

IC50 [µM] | Compound
2.11 | Fc1cc(F)c(-c2ncccc2-c2ccc3ncccc3c2)cc1F [compound 696, 6-(2-(2,4,5-Trifluorophenyl)pyridin-3-yl)quinoline]
2.22 | Cc1cc(-c2ncc(NCc3ccc(C(N)=O)cc3)cc2-c2ccc3nccnc3c2)ccc1F [compound 307, 4-(((6-(4-Fluoro-3-methylphenyl)-5-(quinoxalin-6-yl)pyridin-3-yl)amino)methyl)benzamide]
0.0588 | Fc1ccc(-c2ncccc2-c2ccc3ncc(-c4ncc[nH]4)n3c2)cc1Cl [compound 845, 6-(2-(3-Chloro-4-fluorophenyl)pyridin-3-yl)-3-(1H-imidazol-2-yl)imidazo[1,2-a]pyridine]
9.98 | Fc1cnc(-c2ccc(F)c(Cl)c2)c(-c2ccn3ncnc3c2)c1 [compound 860, 7-(2-(3-Chloro-4-fluorophenyl)-5-fluoropyridin-3-yl)-[1,2,4]triazolo[1,5-a]pyridine]
3.2 | Cc1cc(-c2ncc(NC3CCN(C)CC3)cc2-c2ccc3ncsc3c2)ccc1F [compound 247, 5-(Benzo[d]thiazol-6-yl)-6-(4-fluoro-3-methylphenyl)-N-(1-methylpiperidin-4-yl)pyridin-3-amine]
0.222 | Cc1cc(-c2ncccc2-c2ccn3ncc(C(=O)NCCO)c3c2)ccc1F [compound 707, 5-(2-(4-Fluoro-3-methylphenyl)pyridin-3-yl)-N-(2-hydroxyethyl)pyrazolo[1,5-a]pyridine-3-carboxamide]
0.45 | Cc1ccc(F)c(-c2ncccc2-c2cnc3[nH]ncc3c2)c1 [Compound 153, 5-(2-(2-Fluoro-5-methylphenyl)pyridin-3-yl)-1H-pyrazolo[3,4-b]pyridine]
4.81 | Cc1cc(-c2ncc(NCc3ccc(C#N)cc3)cc2-c2ccc3nccnc3c2)ccc1F [compound 308, 4-(((6-(4-Fluoro-3-methylphenyl)-5-(quinoxalin-6-yl)pyridin-3-yl)amino)methyl)benzonitrile]
2.61 | Cn1cnc2ccc(-c3cccnc3-c3ccc(F)cc3)cc2c1=O [compound 381, 6-(2-(4-Fluorophenyl)pyridin-3-yl)-3-methylquinazolin-4(3H)-one]
3.88 | Cc1cc(-c2ncccc2-c2ccc3ncc(C(C)(C)O)n3c2)ccc1F [compound 599, 2-(6-(2-(4-Fluoro-3-methylphenyl)pyridin-3-yl)imidazo[1,2-a]pyridin-3-yl)propan-2-ol]
0.539 | Cc1cc(-c2ncccc2-c2ccc3ncc(C(=O)NCCCN)n3c2)ccc1F [compound 682, N-(3-Aminopropyl)-6-(2-(4-fluoro-3-methylphenyl)pyridin-3-yl)imidazo[1,2-a]pyridine-3-carboxamide]
0.808 | COc1cccc(-c2ncccc2-c2ccn3ncnc3c2)c1 [compound 880, 7-(2-(3-Methoxyphenyl)pyridin-3-yl)-[1,2,4]triazolo[1,5-a]pyridine]
1.19 | COc1cccc(-c2ncccc2-c2cnc3cn[nH]c3c2)c1 [Compound 142, 6-(2-(3-Methoxyphenyl)pyridin-3-yl)-1H-pyrazolo[4,3-b]pyridine]
2.37 | COc1cnc(-c2cc(Cl)ccc2F)c(-c2ccn3ncnc3c2)c1 [compound 858, 7-(2-(5-Chloro-2-fluorophenyl)-5-methoxypyridin-3-yl)-[1,2,4]triazolo[1,5-a]pyridine]
0.558 | Fc1cc(F)c(-c2ncccc2-c2ccn3nccc3n2)cc1F [compound 915, 5-(2-(2,4,5-Trifluorophenyl)pyridin-3-yl)pyrazolo[1,5-a]pyrimidine]
0.447 | Fc1ccc(-c2ncccc2-c2ccc3ncccc3n2)cc1Cl [compound 691, 2-(2-(3-Chloro-4-fluorophenyl)pyridin-3-yl)-1,5-naphthyridine]
1.38 | Cc1cc(-c2ncccc2-c2ccc3nccnc3n2)ccc1F [compound 738, 6-(2-(4-Fluoro-3-methylphenyl)pyridin-3-yl)pyrido[2,3-b]pyrazine]
0.804 | Fc1ccc(-c2ncccc2-c2ccc3[nH]ncc3c2)cc1F [Compound 62, 5-(2-(3,4-Difluorophenyl)pyridin-3-yl)-1H-indazole]
